Patent US9663473B2 (Actelion Pharmaceuticals Ltd, priority 2013, dated 2017)
Counter-ions that a name gives are not always drawn.

Each molecule was assayed against T1, recombinant human ALX receptor (Homo sapiens, UniProt P25090) (assay: Intracellular calcium measurements (FLIPR), ALX receptor agonistic activity). Conditions: HEK293-hALXR-Gα16 cells, Fluo-4 calcium signal, normalized to WKYMVm 10 nM.
T1 construct: expressed in transfected cells; host or cells: HEK293 (HEK293-hALXR-Gα16)
T1 sequence (P25090 1-351): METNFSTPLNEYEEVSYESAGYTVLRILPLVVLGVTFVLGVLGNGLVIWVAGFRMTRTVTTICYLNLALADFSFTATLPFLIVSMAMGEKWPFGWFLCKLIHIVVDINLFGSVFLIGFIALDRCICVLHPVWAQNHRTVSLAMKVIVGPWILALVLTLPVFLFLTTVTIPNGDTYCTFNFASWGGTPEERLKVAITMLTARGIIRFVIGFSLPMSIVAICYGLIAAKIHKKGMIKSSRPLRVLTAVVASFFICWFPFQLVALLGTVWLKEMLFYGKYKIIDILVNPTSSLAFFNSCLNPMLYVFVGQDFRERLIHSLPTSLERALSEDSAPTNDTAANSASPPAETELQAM
Assay type: cell-based
How it was run: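 Agonist-induced calcium flux was read by FLIPR (488/540 nm) as baseline-subtracted peak emission, expressed relative to WKYMVm at 10 nM final. Cells used: HEK293-hALXR-Gα16, dye-loaded 60 min at 37° C. with 1 μM Fluo-4 AM before compound dose-response addition.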

First: COc1ccc(C[C@@H](NC(=O)N[C@@H]2CCCNC2)c2nc3ccccc3[nH]2)cc1 [Example 131, 1-((R)-1-(1H-Benzo[d]imidazol-2-yl)-2-(4-methoxyphenyl)ethyl)-3-((R)-piperidin-3-yl)urea]
Second: COc1ccc(C[C@@H](NC(=O)NC2CCN(C(C)=O)CC2)c2nc3ccccc3[nH]2)cc1 [Example 138, (R)-1-(1-(1H-Benzo[d]imidazol-2-yl)-2-(4-methoxyphenyl)ethyl)-3-(1-acetylpiperidin-4-yl)urea]
The EC50 of the first is 53-fold lower: 15 nM for the first, 789 nM for the second. The first is the more potent here.

Going from `COc1ccc(C[C@@H](NC(=O)N2CC3CCC2CN3C(=O)OC(C)(C)C)c2nc3ccccc3[nH]2)cc1` (stereo partly drawn) [Example 112, tert-Butyl 5-(((R)-1-(1H-benzo[d]imidazol-2-yl)-2-(4-methoxyphenyl)ethyl)carbamoyl)-2,5-diazabicyclo[2.2.2]octane-2-carboxylate] to `COc1ccc(C[C@@H](NC(=O)N2CCN(C(=O)OC(C)(C)C)CC2)c2nc3ccccc3[nH]2)cc1` [Example 130, (R)-tert-Butyl 4-((1-(1H-benzo[d]imidazol-2-yl)-2-(4-methoxyphenyl)ethyl)carbamoyl)piperazine-1-carboxylate], the EC50 rises from 109 nM to 1060 nM (9.7-fold). The first is the more potent here.

Compared with `COc1ccc(CC(NC(=O)NCc2cc(C(C)C)on2)c2nc3ccccc3[nH]2)cc1` (stereo not shown) [Example 377, 1-(1-(1H-Benzo[d]imidazol-2-yl)-2-(4-methoxyphenyl)ethyl)-3-((5-isopropylisoxazol-3-yl)methyl)urea], `COc1ccc(CC(NC(=O)NCc2csc(C)n2)c2nc3ccccc3[nH]2)cc1` (stereo not shown) [Example 48, 1-(1-(1H-Benzo[d]imidazol-2-yl)-2-(4-methoxyphenyl)ethyl)-3-((2-methylthiazol-4-yl)methyl)urea] is 1.6-fold lower in EC50: 1630 nM for the first, 1010 nM for the second.

First: COc1ccc(CC(NC(=O)N[C@H]2CC[C@H](O)CC2)c2nc3ccccc3[nH]2)cc1F (single isomer, unassigned; ent-1) [Example 309, 1-(1-(1H-Benzo[d]imidazol-2-yl)-2-(3-fluoro-4-methoxyphenyl)ethyl)-3-(trans-4-hydroxycyclohexyl)urea (ent-1)]
Second: COc1ccc(CC(NC(=O)N[C@H]2CC[C@H](O)CC2)c2nc3ccccc3[nH]2)c(F)c1 (relative stereo) [Example 210, 1-(1-(1H-Benzo[d]imidazol-2-yl)-2-(2-fluoro-4-methoxyphenyl)ethyl)-3-(trans-4-hydroxycyclohexyl)urea]
The EC50 of the first is 1.9-fold higher: 3.7 nM for the first, 1.9 nM for the second. The second is the more potent here.

Going from `C[C@]1(O)CC[C@H](NC(=O)NC(Cc2ccc(Br)cc2F)c2nc3ccccc3[nH]2)CC1` (mixture of isomers) [Example 253, 1-(1-(1H-Benzo[d]imidazol-2-yl)-2-(4-bromo-2-fluorophenyl)ethyl)-3-(trans-4-hydroxy-4-methylcyclohexyl)urea] to `CC1(O)CCC(NC(=O)NC(Cc2ccc(Br)c(F)c2)c2nc3ccccc3[nH]2)CC1` (single isomer, unassigned; ent-2) [Example 317, 1-(1-(1H-Benzo[d]imidazol-2-yl)-2-(4-bromo-3-fluorophenyl)ethyl)-3-(trans-4-hydroxy-4-methylcyclohexyl)urea (ent-2)], the EC50 falls from 25 nM to 5.7 nM (4.4-fold).

Going from `COc1ccc(C[C@@H](NC(=O)NCc2c(Cl)cccc2Cl)c2nc3ccccc3[nH]2)cc1` [Example 304, (R)-1-(1-(1H-Benzo[d]imidazol-2-yl)-2-(4-methoxyphenyl)ethyl)-3-(2,6-dichlorobenzyl)urea] to `COc1ccc(C[C@@H](NC(=O)NCCc2ccccc2F)c2nc3ccccc3[nH]2)cc1` [Example 68, (R)-1-(1-(1H-Benzo[d]imidazol-2-yl)-2-(4-methoxyphenyl)ethyl)-3-(2-fluorophenethyl)urea hydrochloride], the EC50 rises from 141 nM to 217 nM (1.5-fold). The first is the more potent here.

`COc1ccc(C[C@@H](NC(=O)N[C@@H](C)c2ccc(Cl)cc2)c2nc3ccccc3[nH]2)cc1` [Example 328, 1-((R)-1-(1H-Benzo[d]imidazol-2-yl)-2-(4-methoxyphenyl)ethyl)-3-((S)-1-(4-chlorophenyl)ethyl)urea] and `COc1ccc(C[C@@H](NC(=O)N[C@@H](C)c2ccc(Br)cc2)c2nc3ccccc3[nH]2)cc1` [Example 331, 1-((R)-1-(1H-Benzo[d]imidazol-2-yl)-2-(4-methoxyphenyl)ethyl)-3-((S)-1-(4-bromophenyl)ethyl)urea] are within 1.5-fold of each other in EC50: 152 nM for the first, 146 nM for the second.

Going from `COc1cc(F)c(CC(NC(=O)NC23CCC(O)(CC2)CC3)c2nc3ccc(F)cc3[nH]2)c(F)c1` (single isomer, unassigned; ent-1) [Example 367, 1-(2-(2,6-Difluoro-4-methoxyphenyl)-1-(6-fluoro-1H-benzo[d]imidazol-2-yl)ethyl)-3-(4-hydroxybicyclo[2.2.2]octan-1-yl)urea (ent-1)] to `COc1ccc(CC(NC(=O)N[C@H]2CC[C@H](O)CC2)c2nc3ccc(F)cc3[nH]2)c(F)c1` (relative stereo) [Example 244, 1-(1-(6-Fluoro-1H-benzo[d]imidazol-2-yl)-2-(2-fluoro-4-methoxyphenyl)ethyl)-3-(trans-4-hydroxycyclohexyl)urea], the EC50 rises from 0.1 nM to 1.1 nM (11-fold).

Compared with `COc1ccc(C[C@@H](NC(=O)NCC2CCc3ccccc32)c2nc3ccccc3[nH]2)cc1` (stereo partly drawn) [Example 72, 1-((R)-1-(1H-Benzo[d]imidazol-2-yl)-2-(4-methoxyphenyl)ethyl)-3-((2,3-dihydro-1H-inden-1-yl)methyl)urea], `CC[C@@H](NC(=O)N[C@H](Cc1ccc(OC)cc1)c1nc2ccccc2[nH]1)c1ccccc1` [Example 344, 1-((R)-1-(1H-Benzo[d]imidazol-2-yl)-2-(4-methoxyphenyl)ethyl)-3-((R)-1-phenylpropyl)urea] is 2.5-fold higher in EC50: 67 nM for the first, 167 nM for the second. The first is the more potent here.

`COc1ccc(C(C)C(NC(=O)N[C@H]2CC[C@H](O)CC2)c2nc3ccccc3[nH]2)cc1` (relative stereo) [Example 395, 1-(1-(1H-Benzo[d]imidazol-2-yl)-2-(4-methoxyphenyl)propyl)-3-(trans-4-hydroxycyclohexyl)urea] and `COc1ccc(C[C@@H](NC(=O)N[C@H]2CC[C@H](O)CC2)c2nc3ccc(C#N)cc3[nH]2)cc1` [Example 152, 1-((R)-1-(6-Cyano-1H-benzo[d]imidazol-2-yl)-2-(4-methoxyphenyl)ethyl)-3-(trans-4-hydroxycyclohexyl)urea] are within 1.5-fold of each other in EC50: 6.4 nM for the first, 6.2 nM for the second.

Going from `COc1ccc(C[C@@H](NC(=O)NC2CCN(CC(F)F)CC2)c2nc3ccccc3[nH]2)cc1` [Example 182, (R)-1-(1-(1H-Benzo[d]imidazol-2-yl)-2-(4-methoxyphenyl)ethyl)-3-(1-(2,2-difluoroethyl)piperidin-4-yl)urea] to `CCC(CC)NC(=O)N[C@H](Cc1ccc(OC)cc1)c1nc2ccccc2[nH]1` [Example 97, (R)-1-(1-(1H-Benzo[d]imidazol-2-yl)-2-(4-methoxyphenyl)ethyl)-3-(pentan-3-yl)urea], the EC50 rises from 40 nM to 124 nM (3.1-fold).

Going from `COc1ccc(C[C@@H](NC(=O)NCCc2cccc(OC)c2)c2nc3ccccc3[nH]2)cc1` [Example 6, (R)-1-(1-(1H-Benzo[d]imidazol-2-yl)-2-(4-methoxyphenyl)ethyl)-3-(3-methoxyphenethyl)urea] to `COc1ccc(C[C@@H](NC(=O)Nc2cccc(OC)c2)c2nc3ccccc3[nH]2)cc1` [Example 177, (R)-1-(1-(1H-Benzo[d]imidazol-2-yl)-2-(4-methoxyphenyl)ethyl)-3-(3-methoxyphenyl)urea], the EC50 falls from 378 nM to 247 nM (1.5-fold).

`COc1ccc(C[C@@H](NC(=O)NC2(c3ccc(Br)cc3)CC2)c2nc3ccccc3[nH]2)cc1` [Example 340, (R)-1-(1-(1H-Benzo[d]imidazol-2-yl)-2-(4-methoxyphenyl)ethyl)-3-(1-(4-bromophenyl)cyclopropyl)urea] and `COc1ccc(C[C@@H](NC(=O)NC(C)(C)c2ccccc2)c2nc3ccccc3[nH]2)cc1` [Example 350, (R)-1-(1-(1H-Benzo[d]imidazol-2-yl)-2-(4-methoxyphenyl)ethyl)-3-(2-phenylpropan-2-yl)urea] are within 1.5-fold of each other in EC50: 268 nM for the first, 288 nM for the second.

Going from `COc1ccc(C[C@@H](NC(=O)N[C@H](C(N)=O)c2ccccc2)c2nc3ccccc3[nH]2)cc1` [Example 339, (S)-2-(3-((R)-1-(1H-Benzo[d]imidazol-2-yl)-2-(4-methoxyphenyl)ethyl)ureido)-2-phenylacetamide] to `COC(=O)c1ccc([C@H](C)NC(=O)N[C@H](Cc2ccc(OC)cc2)c2nc3ccccc3[nH]2)cc1` [Example 337, Methyl 4-((S)-1-(3-((R)-1-(1H-benzo[d]imidazol-2-yl)-2-(4-methoxyphenyl)ethyl)ureido)ethyl)benzoate], the EC50 rises from 39 nM to 380 nM (9.7-fold).

Going from `CCc1ccc(CC(NC(=O)N[C@H]2CC[C@H](O)CC2)c2nc3cc(F)ccc3[nH]2)cc1` (single isomer, unassigned; ent-1) [Example 368, 1-(2-(4-Ethylphenyl)-1-(5-fluoro-1H-benzo[d]imidazol-2-yl)ethyl)-3-(trans-4-hydroxycyclohexyl)urea (ent-1)] to `C[C@]1(O)CC[C@H](NC(=O)NC(Cc2ccc(C(F)(F)F)c(F)c2)c2nc3ccccc3[nH]2)CC1` (mixture of isomers) [Example 239, 1-(1-(1H-Benzo[d]imidazol-2-yl)-2-(3-fluoro-4-(trifluoromethyl)phenyl)ethyl)-3-(trans-4-hydroxy-4-methylcyclohexyl)urea], the EC50 rises from 1.8 nM to 77 nM (43-fold). The first is the more potent here.

Molecule `COc1ccc(CC(NC(=O)NCCc2c(C)noc2C)c2nc3ccccc3[nH]2)cc1` (stereo not shown) [Example 42, 1-(1-(1H-Benzo[d]imidazol-2-yl)-2-(4-methoxyphenyl)ethyl)-3-(2-(3,5-dimethylisoxazol-4-yl)ethyl)urea] has an EC50 of 814 nM.
